In experiment [1] the test system is Oxidoreduktase aus Metschnikowia zobellii. The experiment is described as follows: Substrate spectrum (relative enzyme activity, standard assay of Example 5.1). In kind it is biochemical.
The test system of experiment [2] is rekombinante Oxidoreduktase aus Metschnikowia zobellii. Format: biochemical.
The mark [3] stands for this setting: activity with 2-Oxo-4-phenyl-buttersäureethylester set to 100%, NADPH, 25 °C.

Like-named read-outs stand apart in the source and are kept apart here.

As for `CC1CCCC(=O)C1` (stereo not shown) [3-Methylcyclohexanon], the “Relative Aktivität %” value in experiment [1] (setting [3]) is 8%.
Still for that read-out and setting: with `CC1CCCCC1=O` (stereo not shown) [2-Methylcyclohexanon] the figure was 8%.
Consider `CCOC(=O)C(=O)c1ccccc1` [Ethylphenylglyoxylat], for which, in experiment [2], the “des eingesetzten Substrats reduziert” value is 50%. Also, the “Relative Aktivität %” value in experiment [1] (setting [3]) stood at 50%.
On to `O=C(CCl)c1ccccc1` [2-Chlor-1-phenyl-ethan-1-on], for which the “des eingesetzten Substrats reduziert” value in experiment [2] (Nach 48 h, 25 °C, two-phase system) came to 75%.
With `CCC(C)=O` [Butan-2-on], the “Relative Aktivität %” value in experiment [1] was found to be 0%.
As to `O=C1CCCCC1` [Cyclohexanon], the “Relative Aktivität %” value in experiment [1] was determined as 3%.
On to `CCOC(=O)C1CCCC1=O` (stereo not shown) [2-Oxo-cyclopentan carbonsäure-ethylester], for which the “Relative Aktivität %” value in experiment [1] (setting [3]) stood at 8%.
Still for that read-out and setting: with `CCCC(=O)C(=O)OCC` [Ethyl-2-oxovaleriansäure] the figure was 100%.
Consider `CCOC(=O)C(=O)CCc1ccccc1` [Ethyl-2-oxo-4-phenyl-buttersäure], for which the “des eingesetzten Substrats reduziert” value in experiment [2] stood at 92%. In experiment [1] (setting [3]), the “Relative Aktivität %” value was 100%.
Turning to `CCOC(=O)C1CCCCC1=O` (stereo not shown) [2-Oxo-cyclohexan-carbonsäure-ethylester], the “Relative Aktivität %” value in experiment [1] (setting [3]) was found to be 20%.
As to `O=C(CCl)CCCl` [1,4-Dichlor-butan-2-on], the “Relative Aktivität %” value in experiment [1] was 27%.
As to `CC(=O)c1ccccc1` [Acetophenon], the “Relative Aktivität %” value in experiment [1] (setting [3]) is 0%.
As to `CCOC(=O)CC(=O)CCl` [4-Chloracetessigsäureethylester], the “Relative Aktivität %” value in experiment [1] was 100%.
Take `COC(=O)CCCCC(=O)CC(=O)OC` [3-Oxo-1,8-octandisäure-dimethylester]: the “Relative Aktivität %” value in experiment [1] (setting [3]) was 35%.
For the compound `CCOC(=O)C(=O)c1ccccc1Cl` [(2-chlorphenyl)-oxo-essigsäure ethylester], the “Relative Aktivität %” value in experiment [1] (setting [3]) came out at 50%.
For `CCOC(=O)CCCCC(=O)CCCl` [8-Chlor-6-oxo-octansäure-ethylester], the “des eingesetzten Substrats reduziert” value in experiment [2] was 55%. Moreover, in experiment [1] (setting [3]), the “Relative Aktivität %” value worked out at 50%.
For `CCCCCCCC(=O)c1ccccc1` [Caprylophenon], the “Relative Aktivität %” value in experiment [1] (setting [3]) is listed as 0%.
In the case of `O=C(CCl)c1cccc(Cl)c1` [2-chlor-1-(3-chlor-pheny)-ethan-1-on], the “Relative Aktivität %” value in experiment [1] is recorded as 5%.
As to `CC(=O)Cc1ccccc1` [1-Phenyl-2-propanon], the “Relative Aktivität %” value in experiment [1] worked out at 15%.

The values are drawn from patent EP1685248B1, “OXIDOREDUCTASE FROM METSCHNIKOWIA ZOBELLII” (IEP GmbH, priority 2003, dated 2005).
